The values that follow come from US20240116985A1, “STAPLED PEPTIDES AND METHODS THEREOF” (priority 2020, published 2024).

The nature of one data set: Solubility in PBS. The class given is physicochemical. In a few lines:
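Solubility is derived from HPLC peak areas: the ratio of the PBS supernatant peak to a 50 μM DMSO peptide peak, times 50 uM.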

A further data set can be described thus: CHI Log D procedure. Particulars: pH 7.4, CHI Log D. The class given is physicochemical.

Values after ≈ are worked out from the molar mass of the structure shown. Like-named read-outs stand apart in the source and are kept apart here.

As to `CC(=O)N1CCC[C@]12CC=CCCCC1(CCCC=CCCCOC(=O)N3CC[C@@](C(=O)N[C@@H](Cc4ccsc4)C(=O)N[C@@H](Cc4csc5ccccc45)C(=O)N[C@@H](CCC(N)=O)C(N)=O)(C3)NC(=O)[C@H](Cc3ccccc3)NC(=O)[C@H](Cc3ccccc3)NC(=O)[C@H](C)NC(=O)[C@H](CCCCNC(=O)c3ccc(-n4cc(CNC(=O)c5ccc6c(c5)C5(OC6=O)c6ccc(O)cc6Oc6cc(O)ccc65)nn4)cc3)NC(=O)[C@H](CC(C)C)NC(=O)[C@H](CC(=O)O)NC1=O)NC(=O)[C@H](CC(C)(C)C)NC(=O)[C@H](CC(=O)O)NC2=O` (stereo partly drawn) [I-869, Ac-PL3-Asp-Npg-B5-Asp-Leu-[FAM6Ppg][p1TB]Lys-Ala-Phe-Phe-PyrS2-3Thi-BztA-Gln-NH2], the “Solubility” value in “Solubility in PBS” is 10 µM (≈ 25.6 µg/mL). Also, in the data set “CHI Log D procedure”, the logD is 1.91.

Take `CC(=O)N1CCC[C@]12CC=CCCCC1(CCCC=CCCCOC(=O)N3CC[C@@](C(=O)N[C@@H](Cc4ccsc4)C(=O)N[C@@H](Cc4csc5ccccc45)C(=O)N[C@@H](CCC(N)=O)C(=O)N[C@@H](C)C(=O)N[C@@H](C)C(=O)N[C@@H](C)C(N)=O)(C3)NC(=O)[C@H](CC(N)=O)NC(=O)[C@H](Cc3ccccc3)NC(=O)[C@H](C)NC(=O)[C@H](C)NC(=O)[C@H](CC(=O)O)NC(=O)[C@H](CC(=O)O)NC1=O)NC(=O)[C@H](CC(C)(C)C)NC(=O)[C@H](CC(=O)O)NC2=O` (stereo partly drawn) [I-870, Ac-PL3-Asp-Npg-B5-Asp-Asp-Ala-Ala-Phe-Asn-PyrS2-3Thi-BztA-Gln-Ala-Ala]: the Solubility in the data set “Solubility in PBS” (Solubility (uM)) is 47 µM (≈ 100 µg/mL). Besides, the logD in the data set “CHI Log D procedure” was 1.99.

Regarding `CC(=O)N1CCC[C@]12CC=CCCCC1(CCCC=CCCCOC(=O)N3CC[C@@](C(=O)N[C@@H](Cc4ccsc4)C(=O)N[C@@H](Cc4csc5ccccc45)C(=O)N[C@@H](CCC(N)=O)C(=O)N[C@H](C)C(=O)N[C@@H](C)C(=O)N[C@@H](C)C(N)=O)(C3)NC(=O)[C@H](CC(N)=O)NC(=O)[C@H](Cc3ccccc3)NC(=O)[C@H](C)NC(=O)[C@H](C)NC(=O)[C@H](CC(=O)O)NC(=O)[C@H](CC(=O)O)NC1=O)NC(=O)[C@H](CC(C)(C)C)NC(=O)[C@H](CC(=O)O)NC2=O` (stereo partly drawn) [I-871, Ac-PL3-Asp-Npg-B5-Asp-Asp-Ala-Ala-Phe-Asn-PyrS2-3Thi-BztA-Gln-dAla-Ala], the Solubility in the data set “Solubility in PBS” (Solubility (uM)) worked out at 45 µM (≈ 95.9 µg/mL). The molecule further yielded a logD in the data set “CHI Log D procedure” of 1.92.

Regarding `CC(=O)N1CCC[C@]12CC=CCCCC1(CCCC=CCCCOC(=O)N3CC[C@@](C(=O)N[C@@H](Cc4ccsc4)C(=O)N[C@@H](Cc4csc5ccccc45)C(=O)N[C@@H](CCC(N)=O)C(=O)N[C@H](C)C(=O)N[C@H](C)C(=O)N[C@H](C)C(N)=O)(C3)NC(=O)[C@H](CC(N)=O)NC(=O)[C@H](Cc3ccccc3)NC(=O)[C@H](C)NC(=O)[C@H](C)NC(=O)[C@H](CC(=O)O)NC(=O)[C@H](CC(=O)O)NC1=O)NC(=O)[C@H](CC(C)(C)C)NC(=O)[C@H](CC(=O)O)NC2=O` (stereo partly drawn) [I-872, Ac-PL3-Asp-Npg-B5-Asp-Asp-Ala-Ala-Phe-Asn-PyrS2-3Thi-BztA-Gln-dAla-dAla], the “Solubility” value in “Solubility in PBS” was 50 µM (≈ 107 µg/mL). In addition, in the data set “CHI Log D procedure”, the logD came to 1.89.

`CC(=O)N1CCC[C@]12CC=CCCCC1(CCCC=CCCCOC(=O)N3CC[C@@](C(=O)N[C@@H](Cc4ccsc4)C(=O)N[C@@H](Cc4csc5ccccc45)C(=O)N[C@@H](CCC(N)=O)C(=O)N[C@@H](C)C(=O)N[C@@H](C)C(=O)N[C@H](C)C(N)=O)(C3)NC(=O)[C@H](CC(N)=O)NC(=O)[C@H](Cc3ccccc3)NC(=O)[C@H](C)NC(=O)[C@H](C)NC(=O)[C@H](CC(=O)O)NC(=O)[C@H](CC(=O)O)NC1=O)NC(=O)[C@H](CC(C)(C)C)NC(=O)[C@H](CC(=O)O)NC2=O` (stereo partly drawn) [I-873, Ac-PL3-Asp-Npg-B5-Asp-Asp-Ala-Ala-Phe-Asn-PyrS2-3Thi-BztA-Gln-Ala-Ala]: the Solubility in the data set “Solubility in PBS” (Solubility (uM)) amounted to 47 µM (≈ 100 µg/mL). This molecule gave a logD in “CHI Log D procedure” of 2.
